In patent US20230145666A1, “REAL TIME ELECTRONIC CELL SENSING SYSTEMS AND APPLICATIONS FOR CELL-BASED ASSAYS” (Agilent Technologies, Inc., priority 2002, published 2023):
Read-outs that look alike come from different tables or passages of the source.

What was measured:
Format in all cases: cell-based, rat
[1] = test system: IgE-mediated RBL-2H3 mast cell activation; assay: Cell-substrate impedance assay: pharmacological inhibition of antigen-mediated mast cell activation; conditions: at peak response
Protocol: RBL-2H3 mast cells were sensitized with 100 ng/mL anti-DNP-IgE and then incubated with the indicated concentrations of the Bisindolylmaleimide 1 hour prior to addition of 100 ng/mL DNP-BSA. The impedance value indicated as Cell Index was monitored using a cell-substrate impedance monitoring system of the present invention.
The real-time cell-substrate impedance monitoring system comprises three components, an impedance analyzer, a device station, and one or more 16X microtiter devices. Microelectrode sensor arrays were fabricated on glass slides using lithographical microfabrication methods and the electrode-containing slides were assembled to plastic trays to form 16 electrode-containing wells. The device station of the system receives the 16X microtiter devices and is capable of electronically switching any one of the wells to the sensor (impedance) analyzer for impedance measurement. In operation, the devices with cells cultured in the wells are placed into a device station that is located inside an incubator. Electrical cables connect the device station to the sensor (impedance) analyzer. Under the impedance monitoring system’s software control, the impedance analyzer can automatically select wells to be measured and continuously conduct impedance measurements. The impedance data from the analyzer is transferred to a computer, analyzed and processed by integrated software.
To quantify cell status based on the measured cell-electrode impedance, a parameter termed Cell Index is derived, according to
where Rb (f) and Rcell (f) are the frequency dependent electrode resistances (a component of impedance) without cells or with cell present, respectively. N is the number of the frequency points at which the impedance is measured. Thus, Cell Index is a quantitative measure of the status of the cells in an electrode-containing well. Under the same physiological conditions, more cells attached on to the electrodes leads to larger Rcell (f) value, leading to a larger value for Cell Index. […]
20,000 RBL-2H3 cells were seeded per well of a 16X microtiter device and monitored by the impedance measuring system. […] The cell-electrode impedance was continuously measured and the corresponding, time dependent Cell-Index values were derived and recorded.
RBL-2H3 cells were seeded in a 16X microtiter plate device and pre-stimulated with anti-DNP-IgE were incubated for 1 hour with the indicated doses of the PKC-specific inhibitor Bisindolylmaleimide and subsequently treated with 100 ng/mL DNP-BSA (FIG. 17). The dose-dependent inhibition of RBL-2H3 mast cell activation by Bisindolylmaleimide can be monitored on the cell-substrate monitoring system in real-time. […]

[2] = test system: RBL-2H3 mast cells; assay: Impedance monitoring of RBL-2H3 mast cell response to IgE and antigen; conditions: anti-DNP IgE sensitized, 100 ng/mL DNP-BSA (FIG. 14)
Protocol: FIG. 13 is a plot of cell index recording indicating mast cell responses to IgE in the presence or absence of antigen. 20,000 RBL-2H3 mast cells were seeded in each well of a 16× device. Cells were allowed to adhere and grow for 22 hours while being recorded. At 22 hours the cells were treated with either 1 microgram/mL non-specific mouse IgG or 1 microgram/mL anti-DNP mouse IgE. The electronic impedance response of the cells were continued to be recorded for an additional 20 hours after which the media in the wells were aspirated and replaced with fresh serum free media. The cells were allowed to recover for 30 minutes and then treated with the 1 microgram/mL of the antigen, DNP-BSA. The electronic impedance response of the cells was measured for an additional 3 hours.
Approximately 14 hours after seeding the cells were incubated with 100 ng/mL anti-DNP IgE followed by application of 100 ng/mL DNP-BSA 24 hours later. Impedance measurements (indicated as Cell Index) were performed at 5 minute intervals post DNP-BSA application.
FIGS. 16A-B show IgE alone-mediated increase in mast cell-electrode impedance response and its effect on antigen-mediated activation step. (A) RBL-2H3 cells seeded on microelectronic sensor arrays were left untreated or treated with indicated concentration of anti-DNP IgE. The impedance value indicated as Cell Index was continuously monitored and recorded using a cell-substrate impedance monitoring system. […] The impedance value indicated as Cell Index was continuously monitored using the system. […]
RBL-2H3 cells were seeded in the 16X device chamber (depicted in FIG. 2) at 20,000 cells/well and the attachment and growth of the cells in the 37° C. tissue culture incubator were monitored in real-time using the cell-substrate monitoring system. […]
20,000 RBL-2H3 cells were seeded per well of a 16X microtiter device and monitored by the impedance measuring system. […] The cell-electrode impedance was continuously measured and the corresponding, time dependent Cell-Index values were derived and recorded. […]

[3] = test system: RBL-2H3 mast cells; assay: Fluorescence microscopy of actin cytoskeleton (rhodamine-phalloidin); conditions: DNP-BSA cross-linking
Protocol: FIGS. 15A-B show correlation between cell-electrode impedance response of RBL-2H3 mast cells and cell morphological dynamics and mediator release. (A) RBL-2H3 mast cells were sensitized with 100 ng/mL IgE or treated with a control IgG antibody and subsequently activated with DNP-BSA. The cells were fixed with paraformaldehyde at the indicated time points, permeablized and stained with rhodamine-phalloidin. The cells were visualized and photographed with a Nikon E-400 immunoflourescence microscope equipped with a CCD camera. (B) RBL-2H3 cells were sensitized with IgE, activated by the addition of DNP-BSA.
RBL-2H3 cells were seeded in 16 well Lab-Tec chamber slides and allowed to attach and spread for 6 hours. The cells were stimulated with anti-DNP IgE at a final concentration of 100 ng/mL or a non-specific mouse IgG at 100 ng/mL and then 16 hours later, the media was aspirated, replaced with fresh media and treated with 100 ng/mL DNP-BSA for the indicated time and then fixed with 4 % parafarmaldehyde. The cells were washed 3X with PBS, permeablized in PBS containing 0.2% TX-100 and blocked in PBS containing 0.5 % BSA. The cells were then stained with rhodamine-phalloidin for 30 minutes, washed 3X with PBS and visualized and imaged using the tritc filter on a Nikon E400 epi-fluorescence microscope and Nikon ACT software. […]

[4] = Rattus norvegicus, RBL-2H3, mast cell activation by impedance, Bisindolylmaleimide N=3, SU6656 N=5, U73122 N=5, Piceatannol N=1, read-out: IC50±SD

Oc1cc(O)cc(/C=C/c2ccc(O)c(O)c2)c1 [Piceatannol]
IC50 [1, 4]: 1 µM

COc1ccc2c(c1)CC[C@@H]1[C@@H]2CC[C@]2(C)[C@@H](NCCCCCCN3C(=O)C=CC3=O)CC[C@@H]12 [U73122]
IC50 ([1]; antigen-mediated RBL-2H3 activation, read-out: IC-50 value): ~1 µM | IC50 ([1]; mast cell activation by impedance, Bisindolylmaleimide N=3, SU6656 N=5, U73122 N=5, Piceatannol N=1, read-out: IC50±SD): 0.93 ± 0.6 µM

CN(C)S(=O)(=O)c1ccc2c(c1)/C(=C/c1cc3c([nH]1)CCCC3)C(=O)N2 [SU6656]
IC50 [1, 4]: 5.8 ± 3.5 µM

DNP-BSA: multi-valent antigen DNP-BSA
time of return to baseline [2]: approximately 2.5 hours | time to detectable impedance increase [2]: ≤ 5 min | time to maximal impedance increase [2]: ≤ 30 min | time at which extensive ruffling is apparent ([3]; printed as post IgE stimulation): 2.5 min | time of peak cytoskeletal reorganization ([3]; printed as post-IgE stimulation): 30 to 45 min
